Experimental data taken from ChEMBL document CHEMBL1201862, “PubChem BioAssay data set” (2004).
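Values below derive from 48-hour exposures of cells grown in 96-well plates, with endpoints linearly interpolated between the two concentrations bracketing the appropriate inhibition level. At the GI50, growth is halved.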 The source made the active and inactive calls. No stated cut-off is given here; in the data, active = GI50 up to about 1.1 µM and inactive = higher.

How the values were obtained:
Experiment in all cases: NCI-60 cell line screen, 48 h
A549 = system: A549
CCRF-CEM = system: CCRF-CEM
COLO 205 = system: COLO 205
HCC 2998 = system: HCC 2998
HT-29 = system: HT-29
Hs-578T = system: Hs-578T
KM12 = system: KM12
MOLT-4 = system: MOLT-4
OVCAR-5 = system: OVCAR-5
SF-295 = system: SF-295
SK-MEL-2 = system: SK-MEL-2
SK-OV-3 = system: SK-OV-3
SNB-75 = system: SNB-75
SR = system: SR
U-251 = system: U-251
UACC-257 = system: UACC-257
UACC-62 = system: UACC-62
HOP-92 = system: HOP-92
OVCAR-3 = system: OVCAR-3

SMILES | GI50 (A549) | GI50 (CCRF-CEM) | GI50 (COLO 205) | GI50 (HCC 2998) | GI50 (HT-29) | GI50 (Hs-578T) | GI50 (KM12) | GI50 (MOLT-4) | GI50 (OVCAR-5) | GI50 (SF-295) | GI50 (SK-MEL-2) | GI50 (SK-OV-3) | GI50 (SNB-75) | GI50 (SR) | GI50 (U-251) | GI50 (UACC-257) | GI50 (UACC-62) | GI50 (HOP-92) | GI50 (OVCAR-3)
NC(=O)c1nnsc1NN=O | > 100 µM (inactive) | > 100 µM (inactive) | > 100 µM (inactive) | > 100 µM (inactive) | > 100 µM (inactive) | > 100 µM (inactive) | > 100 µM (inactive) | > 100 µM (inactive) | > 100 µM (inactive) | > 100 µM (inactive) | > 100 µM (inactive) | > 100 µM (inactive) | 94.8 µM (inactive) | > 100 µM (inactive) | > 100 µM (inactive) | > 100 µM (inactive) | > 100 µM (inactive) | – | –
Cc1cc(C)nc(NS(=O)(=O)c2ccc(NC(=O)c3cc([N+](=O)[O-])cc([N+](=O)[O-])c3)cc2)n1 | > 100 µM (inactive) | 59.7 µM (inactive) | 18.3 µM (inactive) | – | 31.4 µM (inactive) | > 100 µM (inactive) | 50.7 µM (inactive) | 1.79 µM (inactive) | – | – | > 100 µM (inactive) | > 100 µM (inactive) | 15.6 µM (inactive) | 0.0755 µM (active) | 84.3 µM (inactive) | 16.4 µM (inactive) | 77.3 µM (inactive) | 42.5 µM (inactive) | 30.5 µM (inactive)
O/N=C1/Nc2ccccc2C(=S)N2CSCC12 (stereo not given) | 83.2 µM (inactive) | 20.2 µM (inactive) | 41.9 µM (inactive) | 32.4 µM (inactive) | 36.9 µM (inactive) | > 100 µM (inactive) | 33 µM (inactive) | > 100 µM (inactive) | > 100 µM (inactive) | 63.1 µM (inactive) | > 100 µM (inactive) | > 100 µM (inactive) | 16.4 µM (inactive) | 22.9 µM (inactive) | > 100 µM (inactive) | > 100 µM (inactive) | 87.5 µM (inactive) | – | > 100 µM (inactive)
CC1=C(C(=O)OCCc2ccc([N+](=O)[O-])cc2)C(c2ccccc2[N+](=O)[O-])C(C(=O)OC(C)C)=C(C)N1 (stereo not given) | 2.96 µM (inactive) | 2.36 µM (inactive) | 6.01 µM (inactive) | 7.43 µM (inactive) | 5.07 µM (inactive) | 4.38 µM (inactive) | 3.48 µM (inactive) | 1.99 µM (inactive) | 31.1 µM (inactive) | 2.74 µM (inactive) | 3.86 µM (inactive) | 5.81 µM (inactive) | 4.24 µM (inactive) | 2.94 µM (inactive) | 4.73 µM (inactive) | 4.04 µM (inactive) | 4.29 µM (inactive) | – | 5.08 µM (inactive)
COc1ccc(S(=O)(=O)Nc2ccc(-c3csc(N4C(=O)/C(=C/c5ccccc5)N=C4c4ccccc4)n3)cc2)cc1Cl | 35.1 µM (inactive) | 43.5 µM (inactive) | 34.5 µM (inactive) | – | > 100 µM (inactive) | 37.5 µM (inactive) | 33.7 µM (inactive) | 25.1 µM (inactive) | 47.2 µM (inactive) | 41.7 µM (inactive) | 25.9 µM (inactive) | 79.3 µM (inactive) | 29.2 µM (inactive) | 28.1 µM (inactive) | 23.7 µM (inactive) | 30.9 µM (inactive) | 16.8 µM (inactive) | 24.4 µM (inactive) | 36.2 µM (inactive)
O=c1n(CCCN2CCOCC2)nc2n1-c1ccc3ccccc3c1SC2 | 50 µM (inactive) | 45.5 µM (inactive) | 1.43 µM (inactive) | – | 19 µM (inactive) | 37.6 µM (inactive) | 47.3 µM (inactive) | 39.3 µM (inactive) | 66.7 µM (inactive) | 19.9 µM (inactive) | 65.8 µM (inactive) | 63.2 µM (inactive) | 47.8 µM (inactive) | 71.6 µM (inactive) | 57.9 µM (inactive) | 29.8 µM (inactive) | 21.4 µM (inactive) | > 100 µM (inactive) | 95.7 µM (inactive)
COc1c(C)c(C/C=C(\C)CC/C=C(\C)CC/C=C(\C)CC/C=C(\C)CCC=C(C)C)c(OC)c(OC)c1OC | 17.6 µM (inactive) | 23.9 µM (inactive) | > 100 µM (inactive) | – | 88.3 µM (inactive) | > 100 µM (inactive) | 14.7 µM (inactive) | 40.6 µM (inactive) | > 100 µM (inactive) | 19.9 µM (inactive) | > 100 µM (inactive) | > 100 µM (inactive) | 43 µM (inactive) | 22.9 µM (inactive) | 79.6 µM (inactive) | 80.5 µM (inactive) | > 100 µM (inactive) | 15.6 µM (inactive) | > 100 µM (inactive)
COc1c(O)cc2c(c1O)C(=O)C(Cc1ccc(O)cc1)CO2 (stereo not given) | > 100 µM (inactive) | – | > 100 µM (inactive) | – | > 100 µM (inactive) | > 100 µM (inactive) | 89.3 µM (inactive) | 44.5 µM (inactive) | > 100 µM (inactive) | 65.8 µM (inactive) | > 100 µM (inactive) | 68.9 µM (inactive) | 5.79 µM (inactive) | 24.9 µM (inactive) | > 100 µM (inactive) | > 100 µM (inactive) | 99.8 µM (inactive) | 68.2 µM (inactive) | 93.1 µM (inactive)
